The results in this text go back to ChEMBL document CHEMBL3822390, “Synthesis, characterization and anti-cancer activity of a peptide nucleolipid bioconjugate” (2016).

Format in all cases: functional
One test has as its system T47D. In words: Cytotoxicity against human T47D cells assessed as cell growth at 2.13 uM after 48 hrs by SRB assay. Conditions: read-out: Activity. (The SRB assay estimates cell density from bound dye.)
The nature of test [1]: Cytotoxicity against human PC3 cells assessed as cell growth at 2.13 uM after 48 hrs by SRB assay. Conditions: PC-3, 48 h, read-out: Activity.
A short description of test [2]: Cytotoxicity against human TK10 cells assessed as cell growth at 2.13 uM after 48 hrs by SRB assay. As to conditions: TK-10, 48 h, read-out: Activity.
Test [3] can be described thus: Cytotoxicity against human SNB19 cells assessed as cell growth at 2.13 uM after 48 hrs by SRB assay. As to conditions: SNB-19, 48 h, read-out: Activity.
A short description of test [4]: Cytotoxicity against human MOLT4 cells assessed as cell growth at 2.13 uM after 48 hrs by SRB assay. As to conditions: MOLT-4, 48 h, read-out: Activity.
For another test, the system named is NCI-H522. In words: Cytotoxicity against human NCI-H522 cells assessed as cell growth at 2.13 uM after 48 hrs by SRB assay. As to conditions: NCI-H522, 48 h, read-out: Activity.
A further test concerns U-251. In words: Cytotoxicity against human U251 cells assessed as cell growth at 2.13 uM after 48 hrs by SRB assay. As to conditions: U-251, 48 h, read-out: Activity.
Test [5] deals with K562. In words: Cytotoxicity against human K562 cells assessed as cell growth at 2.13 uM after 48 hrs by SRB assay. As to conditions: K562, 48 h, read-out: Activity.
Another test deals with NCI-H322M. In words: Cytotoxicity against human NCI-H322M cells assessed as cell growth at 2.13 uM after 48 hrs by SRB assay. Conditions: read-out: Activity.
For test [6], the system named is 786-0. In words: Cytotoxicity against human 786-0 cells assessed as cell growth at 2.13 uM after 48 hrs by SRB assay. Conditions: 786-0, 48 h, read-out: Activity.
A short description of test [7]: Cytotoxicity against human OVCAR3 cells assessed as cell growth at 2.13 uM after 48 hrs by SRB assay. Conditions: OVCAR-3, 48 h, read-out: Activity.
The next test relates to EKVX. In words: Cytotoxicity against human EKVX cells assessed as cell growth at 2.13 uM after 48 hrs by SRB assay. Conditions: read-out: Activity.
A further test has as its system MDA-MB-435. As to the kind of experiment: Cytotoxicity against human MDA-MB-435 cells assessed as cell growth at 2.13 uM after 48 hrs by SRB assay. Conditions: MDA-MB-435, 48 h, read-out: Activity.
For test [8], the system named is A549. In words: Cytotoxicity against human A549 cells assessed as cell growth at 2.13 uM after 48 hrs by SRB assay. Conditions: A549, 48 h, read-out: Activity.
A short description of test [9]: Cytotoxicity against human SNB75 cells assessed as cell growth at 2.13 uM after 48 hrs by SRB assay. Conditions: SNB-75, 48 h, read-out: Activity.
For test [10], the system named is NCI-H226. In words: Cytotoxicity against human NCI-H226 cells assessed as cell growth at 2.13 uM after 48 hrs by SRB assay. As to conditions: NCI-H226, 48 h, read-out: Activity.
The subject of the next test is MDA-MB-231. In words: Cytotoxicity against human MDA-MB-231 cells assessed as cell growth at 2.13 uM after 48 hrs by SRB assay. Conditions: MDA-MB-231, 48 h, read-out: Activity.
In a further test the test system is Malme-3M. In words: Cytotoxicity against human MALME-3M cells assessed as cell growth at 10 uM after 48 hrs by SRB assay. As to conditions: read-out: Activity.
Test [11] can be described thus: Cytotoxicity against human SW620 cells assessed as cell growth at 10 uM after 48 hrs by SRB assay. As to conditions: SW-620, 48 h, read-out: Activity.
Test [12] relates to A549. In words: Cytotoxicity against human A549 cells assessed as cell growth at 10 uM after 48 hrs by SRB assay. As to conditions: A549, 48 h, read-out: Activity.
The nature of test [13]: Cytotoxicity against human COLO205 cells assessed as cell growth at 10 uM after 48 hrs by SRB assay. As to conditions: COLO 205, 48 h, read-out: Activity.
Test [14] can be described thus: Cytotoxicity against human MOLT4 cells assessed as cell growth at 10 uM after 48 hrs by SRB assay. As to conditions: MOLT-4, 48 h, read-out: Activity.
Test [15] is described as follows: Cytotoxicity against human SKOV3 cells assessed as cell growth at 10 uM after 48 hrs by SRB assay. Conditions: SK-OV-3, 48 h, read-out: Activity.
The nature of test [16]: Cytotoxicity against human NCI-ADR-RES cells assessed as cell growth at 10 uM after 48 hrs by SRB assay. Conditions: read-out: Activity.
Test [17] concerns MCF7. As to the kind of experiment: Cytotoxicity against human MCF7 cells assessed as cell growth at 10 uM after 48 hrs by SRB assay. As to conditions: MCF7, 48 h, read-out: Activity.
In test [18] the test system is 786-0. As to the kind of experiment: Cytotoxicity against human 786-0 cells assessed as cell growth at 10 uM after 48 hrs by SRB assay. As to conditions: 786-0, 48 h, read-out: Activity.
For test [19], the system named is NCI-H226. As to the kind of experiment: Cytotoxicity against human NCI-H226 cells assessed as cell growth at 10 uM after 48 hrs by SRB assay. As to conditions: NCI-H226, 48 h, read-out: Activity.
The nature of test [20]: Cytotoxicity against human UO31 cells assessed as cell growth at 10 uM after 48 hrs by SRB assay. As to conditions: UO-31, 48 h, read-out: Activity.
Test [21] is described as follows: Cytotoxicity against human UACC257 cells assessed as cell growth at 7.25 uM after 48 hrs by SRB assay. Conditions: UACC-257, 48 h, read-out: Activity.
Test [22] can be described thus: Cytotoxicity against human LOXIMVI cells assessed as cell growth at 7.25 uM after 48 hrs by SRB assay. As to conditions: LOX IMVI, read-out: Activity.
Test [23] concerns NCI-H226. In words: Cytotoxicity against human NCI-H226 cells assessed as cell mortality at 7.25 uM after 48 hrs by SRB assay. Conditions: NCI-H226, 48 h.
The nature of test [24]: Cytotoxicity against human Caki1 cells assessed as cell growth at 7.25 uM after 48 hrs by SRB assay. Conditions: CAKI-1, 48 h, read-out: Activity.
The test system of another test is HT-29. As to the kind of experiment: Cytotoxicity against human HT-29 cells assessed as cell growth at 7.25 uM after 48 hrs by SRB assay. As to conditions: HT-29, 48 h, read-out: Activity.
In the next test the test system is KM12. As to the kind of experiment: Cytotoxicity against human KM12 cells assessed as cell growth at 7.25 uM after 48 hrs by SRB assay. As to conditions: KM12, 48 h, read-out: Activity.
Test [25] can be described thus: Cytotoxicity against human IGROV1 cells assessed as cell growth at 7.25 uM after 48 hrs by SRB assay. As to conditions: IGROV-1, 48 h, read-out: Activity.
The subject of the next test is SK-MEL-5. As to the kind of experiment: Cytotoxicity against human SK-MEL-5 cells assessed as cell growth at 7.25 uM after 48 hrs by SRB assay. As to conditions: SK-MEL-5, 48 h, read-out: Activity.
Test [26] deals with MCF7. In words: Cytotoxicity against human MCF7 cells assessed as cell growth at 7.25 uM after 48 hrs by SRB assay. Conditions: MCF7, 48 h, read-out: Activity.
The nature of test [27]: Cytotoxicity against human UO31 cells assessed as cell growth at 7.25 uM after 48 hrs by SRB assay. As to conditions: UO-31, 48 h, read-out: Activity.
Test [28] deals with K562. In words: Cytotoxicity against human K562 cells assessed as cell growth at 7.25 uM after 48 hrs by SRB assay. Conditions: K562, 48 h, read-out: Activity.
Test [29] is described as follows: Cytotoxicity against human OVCAR5 cells assessed as cell growth at 7.25 uM after 48 hrs by SRB assay. Conditions: OVCAR-5, 48 h, read-out: Activity.
For a further test, the system named is SN12C. In words: Cytotoxicity against human SN12C cells assessed as cell growth at 7.25 uM after 48 hrs by SRB assay. Conditions: read-out: Activity.

In the case of `CCCCCCCCCCCCCCCCNCCO[C@H]1C[C@H](n2cc(C)c(=O)[nH]c2=O)O[C@@H]1C(=O)NCCCC[C@H](NC(=O)[C@H](C)NC(=O)[C@H](CCCCN)NC(=O)[C@H](C)NC(=O)[C@H](CC(C)C)NC(=O)[C@H](CCCCN)NC(=O)[C@H](C)NC(=O)[C@H](CC(C)C)NC(=O)[C@H](CCCCN)NC(=O)[C@H](CCCCN)NC(=O)[C@H](C)NC(=O)[C@H](CC(C)C)NC(=O)[C@H](CCCCN)NC(=O)[C@H](C)NC(=O)[C@H](CC(C)C)NC(=O)[C@H](CCCCN)NC(=O)[C@@H](N)CC(=O)O)C(N)=O`, the growth at 2.13 µM in the test with T47D is 91.6%; in test [1] it was 92.3%; in test [2] it was 95.9%; in [3] it was 106%; in test [4], 97.8%; in the test with NCI-H522 it was 88.8%. For the same compound, the growth at 2.13 µM with U-251 was found to be 92.7%; in the test with K562 [5], 106%; in the test on NCI-H322M it was 110%; with 786-0 [6] it was 107%; in test [7] it was 107%; with EKVX, 103%. The growth at 2.13 µM in the test on MDA-MB-435 was 109%; with A549 [8], 68.7%; in test [9], 96.1%; in the test on NCI-H226 [10] it was 96.5%; in the test on MDA-MB-231, 101%.
As to `CC(C)C[C@H](NC(=O)[C@H](CCCCN)NC(=O)[C@H](C)NC(=O)[C@H](CC(C)C)NC(=O)[C@H](CCCCN)NC(=O)[C@H](CCCCN)NC(=O)[C@H](C)NC(=O)[C@H](CC(C)C)NC(=O)[C@H](CCCCN)NC(=O)[C@H](C)NC(=O)[C@H](CC(C)C)NC(=O)[C@H](CCCCN)NC(=O)[C@@H](N)CC(=O)O)C(=O)N[C@@H](C)C(=O)N[C@@H](CCCCN)C(=O)N[C@@H](C)C(=O)N[C@@H](CCCCN)C(N)=O`, the growth at 10 µM is 107% with Malme-3M; 106% in test [11]; 81% in the test on A549 [12]; 114% in test [13]; 86.4% in [14]; 98.7% in test [15]. Moreover, the growth at 10 µM in test [16] was found to be 105%; in the test with MCF7 [17], 96.7%; in the test with 786-0 [18], 105%; in the test with NCI-H226 [19], 99.1%; in test [20] it was 98%.
With `CCCCCCCCCCCCCCCC(=O)NCCCC[C@H](NC(=O)[C@H](C)NC(=O)[C@H](CCCCN)NC(=O)[C@H](C)NC(=O)[C@H](CC(C)C)NC(=O)[C@H](CCCCN)NC(=O)[C@H](C)NC(=O)[C@H](CC(C)C)NC(=O)[C@H](CCCCN)NC(=O)[C@H](CCCCN)NC(=O)[C@H](C)NC(=O)[C@H](CC(C)C)NC(=O)[C@H](CCCCN)NC(=O)[C@H](C)NC(=O)[C@H](CC(C)C)NC(=O)[C@H](CCCCN)NC(=O)[C@@H](N)CC(=O)O)C(N)=O`, the growth at 7.25 µM in test [21] stood at 73.1%; in test [22], 95.6%; in test [24], 98.3%; in the test on HT-29 it was 92.4%; with KM12, 110%; in test [25], 108%. Moreover, the growth at 7.25 µM stood at 102% in the test on SK-MEL-5; 98.7% in the test on MCF7 [26]; 87.3% in test [27]; 102% in the test on K562 [28]; 105% in [29]; 104% in the test on SN12C. Besides, in the test on NCI-H226 [23], the mortality at 7.25 µM was 0%.

In general, mortality refers to the share of the test organisms that died.
